Experimental data reported in patent publication US6291671A, “Process for producing drug complexes” (Daiichi Pharmaceutical Co., Ltd., priority 1996, dated 2001).
Where a name gives a salt, the structure may show the parent alone. Ends that are not written are not given here. Peptide text beside a SMILES is read from it. * marks the point of attachment. DW‑8089 = (1S,9S)-1-amino-9-ethyl-2,3-dihydro-9-hydroxy-1H,12H-benzo[de]pyrano[3',4':6,7]indolizino[1,2-b]quinoline-10,13(9H,15H)-dione, CC[C@@]1(O)C(=O)OCc2c1cc1n(c2=O)Cc2c-1nc1cccc3c1c2[C@@H](N*)CC3; Exatecan = CC[C@@]1(O)C(=O)OCc2c1cc1n(c2=O)Cc2c-1nc1cc(F)c(C)c3c1c2[C@@H](N*)CC3

How the values were obtained:
[1] = system: Walker 256 tumor-bearing rats; test: Releasing rate of spacers judged from efficacy of doxorubicin drug complexes or free doxorubicin at tumorous sites; format: in vivo, rat; settings: for releasing rate of spacer: drug complexes bound with doxorubicin, Walker 256 tumor-bearing rats
Text: Specific examples of the spacer are shown in the following table; however, the spacer used for the method for preparing the drug complexes of the present invention is not limited to those mentioned below, and it can be readily understood that one of ordinary skilled in the art can appropriately choose a spacer so as to achieve an optimum releasing rate of a drug compound. In the table, the left ends of peptide sequences are N-terminuses and the residues of drug compounds are bound to C-terminuses.D-Phe represents a D-phenylalanine residue and the other amino acids represent L-amino acids. The degrees of the releasing rate were judged from the degree of appearance of efficacy of the drug complexes bound with doxorubicin against Walker 256 tumor-bearing rats, or from the free doxorubicin concentration at tumorous sites of Walker 256 tumor-bearing rats.

[2] = system: Meth A tumor-bearing mice; test: Antitumor activity, Meth A tumor-bearing mice, single administration on day 7; format: in vivo, mouse; settings: for Inhibition rate: calculated based on the drug compound; for antitumor activity (in words) / effective dose-range (in words): single administration, compared to the drug compound, per se
Procedure: (§1) Meth A tumor-bearing mice were prepared (7 mice per group) by subcutaneously transplanting 1×10^6 mouse fibrosarcoma Meth A cells into the right inguinal regions of BALB/c male mice (7-week old). On day 7, the drug complex of Example 9 dissolved in distilled water for injection was injected in the tail vein of the Meth A tumor-bearing mice every 4 days 4 times. On day 21 after the transplantation, tumor masses were excised and weighed to calculate the inhibition rate of tumor growth according to the following equation: inhibition rate of tumor growth (%)=[1-(average tumor weight of the group administered with the test sample/average tumor weight of control group)]×100.
Meth A tumor-bearing mice (6 mice per group) were prepared according to a similar manner to that of Example 11 and the antitumor activity was compared to that obtained by single administration of the drug complexes of Examples 8 and 9 once on day 7.
(§2) Meth A tumor-bearing mice (6 mice per group) were prepared according to a similar manner to that of Example 11 and the antitumor activity of the drug complex of Example 15 was examined by single administration in a similar manner to that of Example 12.
as §2, with “1,” for “11”, “41” for “15”, “in the cases of” for “by”, “12, and its antitumor activity was compared to that of the drug compound, per se.” for “12.”
Meth A tumor-bearing mice (6 mice per group) were prepared according to a similar manner to that of Example 11, and the antitumor activity was examined according to a similar method to that in Example 12 by single administration of the drug complexes of Examples 29, 43, and 44, respectively.

[3] = system: Meth A tumor-bearing mice; test: Antitumor activity, Meth A tumor-bearing mice, i.v. every 4 days 4 times; format: in vivo, mouse; settings: Example 11, every 4 days 4 times
Procedure: as §1

[4] = Example 56 (table 8), 20 mg/kg single
[5] = Example 56 (table 8), 40 mg/kg single
[6] = Example 56 (table 8), 80 mg/kg single
[7] = Example 56 (table 8), 100 mg/kg single

Compound: -Phe-Gly-Gly-Gly-: spacer of drug complexes bound with doxorubicin (FGGG; not fully specified; printed as -Phe-Gly-Gly-Gly-; also: spacer between polysaccharide derivative and drug in drug complex)
- releasing rate of spacer [1]: high releasing rate

Compound: α-methylcarboxymethyldextran Polyalcohol-Gly-Gly-Gly-Phe-NH--A' (A--NH2 =DX-8951) [Example 44]
- Inhibition rate [2, 4]: 75%
- Inhibition rate [2, 5]: 97%
- Inhibition rate [2, 6]: 94%
- Inhibition rate [2, 7]: 96%
- antitumor activity (in words) [2]: high antitumor activity
- effective dose-range (in words) [2]: broader effective dose-range

Compound: Carboxymethyldextran Polyalcohol-Gly-Gly-Gly-Phe-NH--A' (A--NH2 =DX-8951) [Example 29] ({carboxymethyldextran polyalcohol}-GGGF-Exatecan; also: N-terminus linked to carboxymethyldextran polyalcohol, C-terminus amide-linked to drug residue A' (DX-8951))
- Inhibition rate ([2]; Example 56 (table 8), 5 mg/kg single): 79%
- Inhibition rate ([2]; Example 56 (table 8), 10 mg/kg single): 89%
- Inhibition rate [2, 4]: 99%
- Inhibition rate ([2]; Example 56 (table 8), 30 mg/kg single): 99%
- antitumor activity (in words) [2]: high antitumor activity
- effective dose-range (in words) [2]: broader effective dose-range

Compound: -Gly-Gly-Phe-Gly-: spacer of drug complexes bound with doxorubicin (GGFG; not fully specified; printed as -Gly-Gly-Phe-Gly-; also: spacer between polysaccharide derivative and drug in drug complex)
- releasing rate of spacer [1]: high releasing rate
- release of the drug compound (in words) ([1]; spacer for doxorubicin): can release the drug compound at high concentration in a short time

Compound: -Gly-Gly-Phe-Phe-: spacer of drug complexes bound with doxorubicin (GGFF; not fully specified; printed as -Gly-Gly-Phe-Phe-; also: spacer between polysaccharide derivative and drug in drug complex)
- releasing rate of spacer [1]: relatively high releasing rate

Compound: -Gly-Gly-Gly-Gly-Gly-Gly-: spacer of drug complexes bound with doxorubicin
- releasing rate of spacer [1]: relatively high releasing rate

Compound: -Ala-Gly-
- releasing rate of spacer [1]: relatively low releasing rate

Compound: -Gly-Gly-Gly-
- releasing rate of spacer [1]: low releasing rate

Compound: -Phe-Gly-
- releasing rate of spacer [1]: high releasing rate

Compound: Carboxymethyldextran Polyalcohol-Gly-Gly-Phe-Gly-NH--A' (A--NH2 =DW-8089) ({carboxymethyldextran polyalcohol}-GGFG-{DW‑8089}; also: N-terminus linked to carboxymethyldextran polyalcohol, C-terminus amide-linked to drug residue A' (DW-8089)) [Example 41]
- Inhibition rate ([2]; Example 55 (table 7), 3.125 mg/kg single): 61%
- Inhibition rate ([2]; Example 55 (table 7), 6.25 mg/kg single): 81%
- Inhibition rate ([2]; Example 55 (table 7), 12.5 mg/kg single): 95%
- Inhibition rate ([2]; Example 55 (table 7), 25 mg/kg single): 99%
- antitumor activity (in words) [2]: remarkably enhanced antitumor activity
- effective dose-range (in words) [2]: broader effective dose-range

Compound: -Gly-Phe-Gly-Gly-: spacer of drug complexes bound with doxorubicin (GFGG; not fully specified; printed as -Gly-Phe-Gly-Gly-; also: spacer between polysaccharide derivative and drug in drug complex)
- releasing rate of spacer [1]: high releasing rate

Compound: -Gly-Phe-
- releasing rate of spacer [1]: low releasing rate

Compound: -Gly-Gly-Gly-Phe-: spacer of drug complexes bound with doxorubicin (GGGF; not fully specified; printed as -Gly-Gly-Gly-Phe-; also: spacer between polysaccharide derivative and drug in drug complex)
- releasing rate of spacer [1]: relatively low releasing rate

Compound: -Pro-Gly-
- releasing rate of spacer [1]: relatively low releasing rate

Compound: -Leu-Gly-
- releasing rate of spacer [1]: high releasing rate

Compound: Carboxymethyldextran Polyalcohol-Gly-Gly-Gly-Phe-NH--A' (A--NH2 =)X-8951) ({carboxymethyldextran polyalcohol}-GGGF-Exatecan; also: N-terminus linked to carboxymethyldextran polyalcohol, C-terminus amide-linked to drug residue A' (DX-8951)) [Example 43]
- Inhibition rate [2, 4]: 75%
- Inhibition rate [2, 5]: 82%
- Inhibition rate [2, 6]: 92%
- Inhibition rate [2, 7]: 94%
- antitumor activity (in words) [2]: high antitumor activity
- effective dose-range (in words) [2]: broader effective dose-range

Compound: CC[C@@]1(O)C(=O)OCc2c1cc1n(c2=O)Cc2c-1nc1cc(F)c(C)c3c1c2[C@@H](NC(=O)CNC(=O)[C@H](Cc1ccccc1)NC(=O)CNC(=O)CN)CC3 [H)N-Gly-Gly-Phe-Gly-NH--A, 3'-N-(Gly-Gly-Phe-Gly)-NH--A (A--NH2 =DX-8951) Trifluoroacetic Acid Salt] (H-GGFG-Exatecan)
- antitumor activity (in words) [3]: not effective

Compound: Carboxymethyldextran Polyalcohol-Gly-Gly-Gly-Phe-NH--A' (A--NH2 =DX-8951) [Example 8] ({carboxymethyldextran polyalcohol}-GGGF-Exatecan; also: N-terminus linked to carboxymethyldextran polyalcohol, C-terminus amide-linked to drug residue A' (DX-8951))
- Inhibition rate ([2]; Example 12 (Table 3), 5 mg/kg single): 76%
- Inhibition rate ([2]; Example 12 (Table 3), 10 mg/kg single): 85%
- antitumor activity (in words) [2]: (Polysaccharide derivative)-Gly-Gly-Gly-Phe-NH--A'> the drug compound, per se

Compound: -Gly-Gly-
- releasing rate of spacer [1]: low releasing rate

Compound: -Tyr-Gly-
- releasing rate of spacer [1]: high releasing rate

Compound: -Ser-Gly-
- releasing rate of spacer [1]: low releasing rate

Compound: -Gly-Gly-Gly-Phe-Gly-: spacer of drug complexes bound with doxorubicin (GGGFG; not fully specified; printed as -Gly-Gly-Gly-Phe-Gly-; also: spacer between polysaccharide derivative and drug in drug complex)
- releasing rate of spacer [1]: high releasing rate

Compound: -Phe-Phe-
- releasing rate of spacer [1]: relatively low releasing rate

Compound: -Phe-Phe-Gly-Gly-: spacer of drug complexes bound with doxorubicin (FFGG; not fully specified; printed as -Phe-Phe-Gly-Gly-; also: spacer between polysaccharide derivative and drug in drug complex)
- releasing rate of spacer [1]: high releasing rate

Compound: -Gly-Gly-Gly-Gly-: spacer of drug complexes bound with doxorubicin (GGGG; not fully specified; printed as -Gly-Gly-Gly-Gly-; also: spacer between polysaccharide derivative and drug in drug complex)
- releasing rate of spacer [1]: low releasing rate
